According to patent US10701939B2, “Aqueous suspension agrochemical composition” (KUMIAI CHEMICAL INDUSTRY CO., LTD., priority 2015, dated 2020):

System: wheat powdery mildew (Erysiphe graminis)
Experiment: Reference Example: efficacy reinforcement by adjuvant, control of wheat powdery mildew on potted wheat
Format: in vivo
Settings: pyribencarb water-dispersible granules 30 g/ha, no adjuvant added (0 ppm); day 7 after inoculation
Method: Pyribencarb (40 parts), sodium lignin sulfonate (5 parts), polyoxyethylene alkyl aryl ether (1 part), calcium carbonate (54 parts) and water (10 parts) were mixed, kneaded, extruded, and granulated, and the resultant granules were dried in a fluidized bed dryer to obtain water-dispersible granules. Thus obtained water-dispersible granules of pyribencarb were adjusted so as to have a predetermined concentration, and the adjuvant shown in the following Table 2 was added to the diluted solution to a concentration of 100 ppm to prepare a spray solution. In addition, a spray solution containing an adjuvant at a concentration of 100 ppm without containing water-dispersible granules of pyribencarb were separately prepared. Ten wheat seeds (variety: Norin No. 61) were sowed in a plastic cup having a diameter of 5.5 cm, and after grown for 7 days in a greenhouse, 25 ml/m^2 (30 g of pyribencarb per 1 ha) was sprayed onto the wheat at 1.5 to 2 leaf stage. After air-drying, conidia of wheat powdery mildew (Erysiphe graminis) were sprayed and inoculated, and the plant was placed in a greenhouse. On day 7 after inoculation, the disease onset area of the first leaves in the pot in the spray solution-treated region and the untreated region were indexed and investigated according to the criteria in Table 1 below. […]

## COC(=O)NCc1cc(/C(C)=N/OCc2cccc(C)n2)ccc1Cl [pyribencarb, methyl={2-chloro-5-[(E)-1-(6-methyl-2-pyridylmethoxyimino)ethyl]benzyl}carbamate]
  Control effect on wheat powdery mildew (control value): 33.2%
